What was measured:
[1] = test system: phosphorylation of PKCμ, PKCδ and Erk1/2 in A549 lung cancer cells; assay: Western blot of activation of PKC and downstream target protein in A549 cells; type: cell-based; conditions: 0.3 μM, 30 minutes
Procedure: According to the methods described in patent (WO/2017/083783) A549 lung cancer cells (˜3 million cells) were seeded in 10 cm tissue culture dishes (or ˜1 million cells in 6 cm dish) and grown overnight. Cells were then treated with different drugs at indicated concentrations for 30 minutes. Cell lysate preparation, protein quantitation, SDS-PAGE, and Western blotting procedures are described (WO/2017/083783). β-actin or Vinculin was used as loading controls. Imagequant LAS4000 (GE) was used to scan membranes if secondary antibodies anti-mouse IgG HRP conjugate or anti-rabbit IgG HRP conjugate (dilutions from 1:2000-1:10000) were used. For ProteinSimple Wes system, manufacture's procedure was followed (ProteinSimple 12-230 kDa Wes Separation Module) for sample preparation, loading, running, and data analysis.
Phosphorylation of these sites has been linked to acute activation or catalytic activity of the PKC isoforms and Erk1/2. High level of phosphorylation indicates strong activation.
A subset of the diterpenoid compounds with good binding affinity to novel PKC isoforms and PKCμ was tested at two different concentrations in A549 cells to assess activation of PKCμ, PKCδ, and Erk1/2 by Western blot analysis. In addition to the phospho-specific antibodies described above, an additional phospho-specific antibody P-PKCδ (S299) (Abcam cat #133456) was also used. This antibody has been shown in the literature (Durgan et al., FEBS Lett. 2007, 581(18):3377-81, Novel phosphorylation site markers of protein kinase C delta activation) to be able to detect activation of PKCδ. K-101 (prostratin, 1 μM) was included as reference compounds.

[2] = target: T1, C1b domain of human PKCα (Homo sapiens, UniProt P17252); assay: biochemical; type: binding; conditions: 3H-PDBu competition
T1 construct: Genes encoding C1b domains of human PKCα, δ, ε, θ, and PKD1 (PKCμ) were synthesized; made in house; host or cells: E. coli BL21(DE3)

[3] = target: T2, C1b domain of human PKCθ (Homo sapiens, UniProt Q04759); assay: biochemical; type: binding; conditions: 3H-PDBu competition
T2 construct: Genes encoding C1b domains of human PKCα, δ, ε, θ, and PKD1 (PKCμ) were synthesized; made in house; host or cells: E. coli BL21(DE3)
T2 sequence (Q04759 231-281 limits assumed): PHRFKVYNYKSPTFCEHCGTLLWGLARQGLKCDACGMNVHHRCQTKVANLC
Method in brief: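 GST-C1b (human, E. coli-expressed) + 3H-PDBu + compound; 37° C 10 min shaking, then ice 20 min. Filter capture, scintillation count. IC50 → Ki via Cheng-Prusoff, per-prep measured Kd.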

[4] = test system: CT26 tumors; assay: CT26 syngeneic model, IT injection, efficacy and re-challenge; type: in vivo, mouse
Procedure: Each 6-8 weeks old female Balb/c mouse was implanted subcutaneously with 3×10^5 CT26 mouse colon cancer cells. 20 animals were randomized when the average tumor volume reached 60 mm3. Tumor size was measured as described in Example 76. Animal body weight was monitored regularly as an indirect measure of toxicity. All mice tolerated drug treatments very well with less than 10% body weight loss. […] Scabs formed a few days later and the skin recovered with minimal scaring within 3-4 weeks.
For the efficacy portion of the study, the major endpoints were tumor growth inhibition and the animal survival.
To test if anti-tumor immunity was developed in the cured mice, the re-challenge portion of the study was conducted. The major endpoint was the tumor initiation (measurable tumor >50 mm^3) of the re-implanted tumor cells.
CT26 cells (3×10^5) were re-implanted into the right lower flank of the cured animals and 10 age-matched naïve control animals from the same batch to challenge animal immune system. An unrelated 4T1 breast cancer cell line (1×10^5) was implanted in the left upper flank of these animals at the same time. Tumor initiation and tumor growth were monitored. Data points represent group means of the tumor volumes and error bars represent standard error of the mean (SEM).

[5] = challenge of 6 cured mice with 4T1 cells
[6] = re-challenge of 6 cured mice with CT26 cells, 32 days

CC1=C[C@H]2[C@@]3(O)[C@H](C)C[C@]4(OC(=O)[C@@H](N)C5Cc6ccccc6C5)[C@H]([C@@H]3C=C(CO)C[C@]2(O)C1=O)C4(C)C
phosphorylation of PKCμ, PKCδ and Erk1/2 [1]: induced high levels of phosphorylation

CC1=C[C@H]2[C@@]3(O)[C@H](C)C[C@]4(OC(=O)[C@@H](N)CC5CCCCC5)[C@H]([C@@H]3C=C(CO)C[C@]2(O)C1=O)C4(C)C
Ki [2]: 60 to 100 nM | phosphorylation of PKCμ, PKCδ and Erk1/2 [1]: induced high levels of phosphorylation

CC1=C[C@H]2[C@@]3(O)[C@H](C)C[C@]4(OC(=O)[C@H](N)CCCCCCc5ccccc5)[C@H]([C@@H]3C=C(CO)C[C@]2(O)C1=O)C4(C)C
Ki [3]: 10 to 30 nM | body weight loss ([4]; 20 mg/ml, 20 μl (400 μg) IT, Balb/c mice): less than 10% | mice alive at day 50 with tumors completely eradicated ([4]; N 10): 6 | median survival ([4]; analysis to day 50): not reached | Tumor initiation (mice) [4, 5]: 6 | Tumor-free (mice) [4, 5]: 0 | mice with tumors eliminated ([4]; day 3 after the first IT dose, N 10): 8 | mean tumor volume ([4]; day 12, 20 mg/ml, 20 μl IT): 35 mm^3 | mice with tumor relapse ([4]; from day 10, N 10): 4 | Tumor initiation (mice) [4, 6]: 0 | Tumor-free (mice) [4, 6]: 6

CC1=C[C@H]2[C@@]3(O)[C@H](C)C[C@]4(OC(=O)[C@@H](N)[C@]56C[C@H]7C[C@H](C[C@H](C7)C5)C6)[C@H]([C@@H]3C=C(CO)C[C@]2(O)C1=O)C4(C)C
Ki [2]: 10 to 30 nM

Source: patent US20240197666A1, “DITERPENOID COMPOUNDS THAT ACT ON PROTEIN KINASE C (PKC)” (K-Gen Therapeutics, Inc., priority 2021, published 2024)
